According to ChEMBL document CHEMBL5727912, “Benzenesulfonamide compounds and their use as therapeutic agents” (2020):
pIC50: −log10 of the molar value.

Experiments:
[1] = In Vitro Assay: In general, Trex HEK293 cells were stably transfected with an inducible expression vector containing the full-length cDNA coding for the desired human sodium channel α-subunit and with an expression vector containing full length cDNA coding for the β1-subunit. Sodium channel expressing cell lines were induced with tetracycline (1 μg/mL) and plated on 384-well PDL-coated plates at …
[2] = as above; remark: listed apart in the source

SMILES	pIC50 [1]	pIC50 [2]
C[C@@H](c1c(F)ccc(F)c1CNc1cc(F)c(S(=O)(=O)Nc2cscn2)c(F)c1)N1C2CCC1CC2 (single isomer, unassigned)	< 4.52	< 4.52
C[C@H](c1c(F)ccc(F)c1CNc1cc(F)c(S(=O)(=O)Nc2cscn2)c(F)c1)N1C2CCC1CC2 (single isomer, unassigned)	< 4.52	< 4.52
